In the CheMixHub viscosity set:
Values joined by “and” are separate entries in the source; they are usually repeats but may differ in a detail not shown here. Equal entries are not always repeated.

Experiment: xn = mol fraction of the nth substance listed

c1ccc2ccccc2c1 + CCCCO
viscosity
Conditions | 303.15 K | 308.15 K | 313.15 K | 318.15 K | 323.15 K
101 kPa, x1 = 0.07958 | 2.076 mPa·s | 1.848 mPa·s | 1.633 mPa·s | 1.461 mPa·s | 1.312 mPa·s
101 kPa, x1 = 0.1174 | – | 1.796 mPa·s | 1.601 mPa·s | 1.427 mPa·s | 1.28 mPa·s
101.33 kPa, x1 = 0.06489 | – | – | 1.67 mPa·s | – | 1.33 mPa·s
101.33 kPa, x1 = 0.07958 | 2.076 mPa·s | 1.848 mPa·s | 1.633 mPa·s and 1.633 mPa·s | 1.461 mPa·s | 1.312 mPa·s and 1.312 mPa·s
101.33 kPa, x1 = 0.09537 | – | – | 1.624 mPa·s | – | 1.3 mPa·s
101.33 kPa, x1 = 0.1174 | – | – | 1.601 mPa·s | – | 1.28 mPa·s
101.33 kPa, x1 = 0.12 | – | 1.796 mPa·s | 1.601 mPa·s | 1.427 mPa·s | 1.28 mPa·s
101.33 kPa, x1 = 0.1436 | – | – | 1.567 mPa·s | – | 1.26 mPa·s

CC[C@H](C)[C@H](N)C(=O)O + O
viscosity, 101 kPa
Conditions | 293.15 K | 298.15 K | 303.15 K | 308.15 K | 313.15 K | 318.15 K
x1 = 0.00045 | 1.008 mPa·s | 0.896 mPa·s and 0.896 mPa·s | 0.8028 mPa·s and 0.8027 mPa·s | 0.7244 mPa·s and 0.7243 mPa·s | 0.6578 mPa·s and 0.6577 mPa·s | 0.6022 mPa·s and 0.602 mPa·s
x1 = 0.0009 | 1.019 mPa·s | 0.9057 mPa·s and 0.9059 mPa·s | 0.8118 mPa·s and 0.8118 mPa·s | 0.733 mPa·s and 0.7328 mPa·s | 0.6658 mPa·s and 0.6657 mPa·s | 0.6098 mPa·s and 0.6096 mPa·s
x1 = 0.00135 | 1.03 mPa·s | 0.9164 mPa·s and 0.9165 mPa·s | 0.8217 mPa·s and 0.8217 mPa·s | 0.7422 mPa·s and 0.742 mPa·s | 0.6745 mPa·s and 0.6744 mPa·s | 0.6181 mPa·s and 0.6178 mPa·s
x1 = 0.0018 | 1.042 mPa·s | 0.9273 mPa·s and 0.9275 mPa·s | 0.8319 mPa·s and 0.8318 mPa·s | 0.7516 mPa·s and 0.7515 mPa·s | 0.6834 mPa·s and 0.6832 mPa·s | 0.6265 mPa·s and 0.6261 mPa·s
x1 = 0.002245 | 1.054 mPa·s | 0.9386 mPa·s and 0.9387 mPa·s | 0.8423 mPa·s and 0.8422 mPa·s | 0.7613 mPa·s and 0.7612 mPa·s | 0.6925 mPa·s and 0.6923 mPa·s | 0.6351 mPa·s and 0.6347 mPa·s
x1 = 0.002695 | 1.067 mPa·s | 0.9502 mPa·s and 0.9502 mPa·s | 0.8531 mPa·s and 0.853 mPa·s | 0.7714 mPa·s and 0.7713 mPa·s | 0.702 mPa·s and 0.7018 mPa·s | 0.6438 mPa·s and 0.6434 mPa·s

CC1COC(=O)O1 (stereo not given) + CCCCCO
298.15 K, 101 kPa
Conditions | viscosity [mPa·s]
x1 = 0.0218 | 3.297
x1 = 0.0861 | 3.235
x1 = 0.1654 | 3.161
x1 = 0.2433 | 3.094
x1 = 0.3101 | 3.029
x1 = 0.374 | 2.973
x1 = 0.4207 | 2.933
x1 = 0.5003 | 2.865
x1 = 0.5691 | 2.808
x1 = 0.6326 | 2.756
x1 = 0.7214 | 2.685
x1 = 0.8072 | 2.618
x1 = 0.8655 | 2.574
x1 = 0.9573 | 2.505

CCCCn1cc[n+](C)c1.O=S(=O)([O-])C(F)(F)F + CCCCO
100 kPa
Conditions | viscosity [mPa·s]
298.15 K, x1 = 0.2147 | 6.17
298.15 K, x1 = 0.2908 | 8.85
298.15 K, x1 = 0.9078 | 62.73
303.15 K, x1 = 0.2147 | 5.08
303.15 K, x1 = 0.2908 | 6.92
303.15 K, x1 = 0.9078 | 50.78
308.15 K, x1 = 0.2908 | 6.03
313.15 K, x1 = 0.4008 | 9.48
318.15 K, x1 = 0.4008 | 7.86
323.15 K, x1 = 0.4008 | 7.16

CC1COC(=O)O1 (stereo not given) + CC(C)O
viscosity [mPa·s], 101 kPa
Conditions | x1 = 0.0614 | x1 = 0.1283 | x1 = 0.2015 | x1 = 0.2818 | x1 = 0.3706 | x1 = 0.469 | x1 = 0.5787 | x1 = 0.7019 | x1 = 0.8412
298.15 K | 1.84 | 1.74 | 1.68 | 1.64 | 1.64 | 1.65 | 1.7 | 1.8 | 2.04
303.15 K | 1.6 | 1.53 | 1.46 | 1.44 | 1.45 | 1.48 | 1.54 | 1.65 | 1.85
308.15 K | 1.44 | 1.37 | 1.31 | 1.29 | 1.29 | 1.32 | 1.39 | 1.49 | 1.68

C1CCOC1 + CCCCO
101 kPa
Conditions | viscosity [mPa·s]
298.15 K, x1 = 0.0512 | 2.141
298.15 K, x1 = 0.102 | 1.844
298.15 K, x1 = 0.1406 | 1.658
298.15 K, x1 = 0.183 | 1.504
298.15 K, x1 = 0.3126 | 1.154
298.15 K, x1 = 0.4002 | 0.9777
298.15 K, x1 = 0.4443 | 0.9072
298.15 K, x1 = 0.5 | 0.8514
298.15 K, x1 = 0.5121 | 0.8099
298.15 K, x1 = 0.5924 | 0.7195
298.15 K, x1 = 0.6795 | 0.6388
298.15 K, x1 = 0.7633 | 0.5776
298.15 K, x1 = 0.8268 | 0.5346
298.15 K, x1 = 0.8944 | 0.5033
298.15 K, x1 = 0.9677 | 0.4714
313.15 K, x1 = 0.0576 | 1.529
313.15 K, x1 = 0.1184 | 1.324
313.15 K, x1 = 0.173 | 1.166
313.15 K, x1 = 0.2282 | 1.035
313.15 K, x1 = 0.3549 | 0.831
313.15 K, x1 = 0.4542 | 0.7105
313.15 K, x1 = 0.5481 | 0.6237
313.15 K, x1 = 0.6462 | 0.5526
313.15 K, x1 = 0.7386 | 0.4994
313.15 K, x1 = 0.8296 | 0.4574
313.15 K, x1 = 0.8747 | 0.439
313.15 K, x1 = 0.9154 | 0.4256
313.15 K, x1 = 0.9584 | 0.4129

CCOCCn1cc[n+](CCC#N)c1.O=S(=O)([N-]S(=O)(=O)C(F)(F)F)C(F)(F)F + CS(C)=O
Conditions | viscosity [mPa·s]
303.15 K, 101.33 kPa, x1 = 0.7207 | 40.65

CC1COC(=O)O1 (stereo not given) + CCO
298 K, 101.3 kPa
Conditions | viscosity [mPa·s]
x1 = 0.021 | 1.1
x1 = 0.0404 | 1.116
x1 = 0.06 | 1.131
x1 = 0.0806 | 1.147
x1 = 0.0987 | 1.161
x1 = 0.2008 | 1.237
x1 = 0.3003 | 1.312
x1 = 0.4003 | 1.397
x1 = 0.5002 | 1.497
x1 = 0.6002 | 1.619
x1 = 0.7001 | 1.768
x1 = 0.8 | 1.947
x1 = 0.9005 | 2.165

CC1COC(=O)O1 (stereo not given) + c1ccccc1
viscosity [mPa·s]
Conditions | 298.15 K | 303.15 K | 308.15 K
101 kPa, x1 = 0.0191 | 0.6193 | – | 0.5377
101 kPa, x1 = 0.0416 | 0.6341 | – | 0.5545
101 kPa, x1 = 0.0585 | 0.6458 | – | 0.5677
101 kPa, x1 = 0.0771 | 0.6595 | – | 0.5824
101 kPa, x1 = 0.103 | 0.6758 | – | 0.6037
101 kPa, x1 = 0.1982 | 0.7426 | – | 0.6908
101 kPa, x1 = 0.2949 | 0.8478 | – | 0.7937
101 kPa, x1 = 0.3972 | 0.9876 | – | 0.9193
101 kPa, x1 = 0.4938 | 1.145 | – | 1.055
101 kPa, x1 = 0.5987 | 1.346 | – | 1.221
101 kPa, x1 = 0.7002 | 1.571 | – | 1.402
101 kPa, x1 = 0.7907 | 1.799 | – | 1.582
101 kPa, x1 = 0.9024 | 2.119 | – | 1.826
101.3 kPa, x1 = 0.1049 | – | 0.616 | –
101.3 kPa, x1 = 0.2087 | – | 0.7019 | –
101.3 kPa, x1 = 0.3114 | – | 0.798 | –
101.3 kPa, x1 = 0.4131 | – | 0.9074 | –
101.3 kPa, x1 = 0.5136 | – | 1.035 | –
101.3 kPa, x1 = 0.6131 | – | 1.194 | –
101.3 kPa, x1 = 0.7109 | – | 1.379 | –
101.3 kPa, x1 = 0.8083 | – | 1.599 | –
101.3 kPa, x1 = 0.9046 | – | 1.853 | –

CC[N+](CC)(CC)CC.Cc1ccc(S(=O)(=O)[O-])cc1 + CC(O)CO
101 kPa, x1 = 0.2
Conditions | viscosity [mPa·s]
298.15 K | 66.9
303.15 K | 51.2
308.15 K | 39.8
313.15 K | 31.6
318.15 K | 25.5
323.15 K | 20.9

CC1COC(=O)O1 (stereo not given) + CC(C)=O
303.15 K, 101.3 kPa
Conditions | viscosity [mPa·s]
x1 = 0.088 | 0.3518
x1 = 0.1784 | 0.4187
x1 = 0.2713 | 0.5016
x1 = 0.3668 | 0.6038
x1 = 0.4647 | 0.7316
x1 = 0.5657 | 0.8959
x1 = 0.6697 | 1.104
x1 = 0.7768 | 1.371
x1 = 0.8864 | 1.71
